Reference: patent publication US9365522B2, “Pyrazole amide derivative” (AMGEN INC., priority 2015, dated 2016)

Biological target: T1, human RORγ-LBD (Homo sapiens, UniProt P51449)
T1 construct: made in house; host or cells: E. coli (BL-21)
T1 sequence (P51449 262-518): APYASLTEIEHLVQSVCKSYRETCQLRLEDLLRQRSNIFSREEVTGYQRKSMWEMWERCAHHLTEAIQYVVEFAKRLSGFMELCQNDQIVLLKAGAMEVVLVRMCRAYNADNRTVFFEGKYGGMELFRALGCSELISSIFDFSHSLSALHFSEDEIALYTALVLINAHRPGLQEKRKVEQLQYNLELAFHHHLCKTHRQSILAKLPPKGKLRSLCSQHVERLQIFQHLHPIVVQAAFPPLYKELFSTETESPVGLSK
Assay: ROR gamma coactivator peptide recruitment Alphascreen assay (RORγ-LBD binding to GRIP1 coactivator peptide)
Format: biochemical
Conditions: 5 nM human RORγ-LBD, 30 nM 7-β-hydroxycholesterol, 50 nM biotinylated GRIP1 coactivator peptide, overnight incubation at room temperature; read-out: result (pIC50, RORγ coactivator peptide recruitment Alphascreen assay) (converted)
Procedure, shortened: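 Alphascreen proximity read-out after overnight room-temperature incubation, yielding pIC50 from 1-in-2 compound series (2.5% DMSO final). Mixture: 50 nM biotin-GRIP1 peptide, 30 nM 7-β-hydroxycholesterol agonist, 5 nM recombinant 6×His:Flag human RORγ-LBD (aa 262-518), 50 mM HEPES pH 7.4.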

IC50 [nM] | SMILES
1.62 | CC1(C)[C@@H]2C[C@H](N(CC(=O)c3c(Cl)ccc(F)c3Cl)C(=O)c3cnn([C@H]4CC[C@](C)(C(=O)O)CC4)c3C(F)(F)F)C[C@@H]21 [Example 763, trans-4-(4-((2-(2,6-dichloro-3-fluorophenyl)-2-oxoethyl)((1R,3r,5S)-6,6-dimethylbicyclo[3.1.0]hex-3-yl)carbamoyl)-5-(trifluoromethyl)-1H-pyrazol-1-yl)-1-methylcyclohexanecarboxylic acid]
3.16 | O=C(CN(Cc1ccc(Cl)cc1)C(=O)c1cnn([C@H]2CC[C@H](C(=O)O)CC2)c1C(F)(F)F)c1c(Cl)ccc(F)c1Cl [Example 541, trans-4-(4-((4-chlorobenzyl)(2-(2,6-dichloro-3-fluorophenyl)-2-oxoethyl)carbamoyl)-5-(trifluoromethyl)-1H-pyrazol-1-yl)cyclohexanecarboxylic acid]
575 | CC(C)(C)CN(CC(=O)c1c(Cl)cncc1Cl)C(=O)c1cnn([C@H]2CC[C@@](C)(C(=O)O)C[C@@H]2F)c1C(F)(F)F [Example 870, (1R,3S,4S)-4-(4-((2-(3,5-dichloro-4-pyridinyl)-2-oxoethyl)(2,2-dimethylpropyl)carbamoyl)-5-(trifluoromethyl)-1H-pyrazol-1-yl)-3-fluoro-1-methylcyclohexanecarboxylic acid]
7.94 | C[C@]1(C(=O)O)CC[C@H](n2ncc(C(=O)N(CC(=O)c3c(Cl)cccc3Cl)[C@@H]3CCC34CCCC4)c2C(F)(F)F)CC1 [Example 650, trans-4-(4-((2-(2,6-dichlorophenyl)-2-oxoethyl)((1R)-spiro[3.4]oct-1-yl)carbamoyl)-5-(trifluoromethyl)-1H-pyrazol-1-yl)-1-methylcyclohexanecarboxylic acid]
6.46 | CC1(CN(CC(=O)c2c(Cl)cncc2Cl)C(=O)c2cnn([C@H]3CC[C@](C)(C(=O)O)CC3)c2C(F)(F)F)CC(F)(F)C1 [Example 863, trans-4-(4-((2-(3,5-dichloro-4-pyridinyl)-2-oxoethyl)((3,3-difluoro-1-methylcyclobutyl)methyl)carbamoyl)-5-(trifluoromethyl)-1H-pyrazol-1-yl)-1-methylcyclohexanecarboxylic acid]
3.55 | CC1(CN(CC(=O)c2c(Cl)cncc2Cl)C(=O)c2cnn([C@H]3CC[C@](C)(C(=O)O)CC3)c2C(F)(F)F)CCC1 [Example 730, trans-4-(4-((2-(3,5-dichloro-4-pyridinyl)-2-oxoethyl)((1-methylcyclobutyl)methyl)carbamoyl)-5-(trifluoromethyl)-1H-pyrazol-1-yl)-1-methylcyclohexanecarboxylic acid]
6.76 | C[C@]1(C(=O)O)CC[C@H](n2ncc(C(=O)N(CC(=O)c3c(Cl)cncc3Cl)CC3CCCC3)c2C(F)(F)F)CC1 [Example 592, trans-4-(4-((cyclopentylmethyl)(2-(3,5-dichloro-4-pyridinyl)-2-oxoethyl)carbamoyl)-5-(trifluoromethyl)-1H-pyrazol-1-yl)-1-methylcyclohexanecarboxylic acid]
3.39 | Cc1cc(Cl)c(C(=O)CN(CC(C)(C)C)C(=O)c2cnn([C@H]3CC[C@](C)(C(=O)O)CC3)c2C(F)(F)F)c(Cl)c1 [Example 568, trans-4-(4-((2-(2,6-dichloro-4-methylphenyl)-2-oxoethyl)(2,2-dimethylpropyl)carbamoyl)-5-(trifluoromethyl)-1H-pyrazol-1-yl)-1-methylcyclohexanecarboxylic acid]
646 | C[C@@H]1C[C@@](C)(C(=O)O)CC[C@@H]1n1ncc(C(=O)N(CC(=O)c2c(Cl)cncc2Cl)CC(C)(C)C)c1C(F)(F)F [Example 882, (1S,3R,4S)-4-(4-((2-(3,5-dichloro-4-pyridinyl)-2-oxoethyl)(2,2-dimethylpropyl)carbamoyl)-5-(trifluoromethyl)-1H-pyrazol-1-yl)-1,3-dimethylcyclohexanecarboxylic acid]
2400 | CC1(C)CC(CN(CC(=O)c2c(F)cccc2F)C(=O)c2cnn([C@H]3CC[C@@H](C(=O)O)CC3)c2C(F)(F)F)C1 [Example 597, cis-4-(4-((2-(2,6-difluorophenyl)-2-oxoethyl)((3,3-dimethylcyclobutyl)methyl)carbamoyl)-5-(trifluoromethyl)-1H-pyrazol-1-yl)cyclohexanecarboxylic acid]
13.8 | C[C@H]1C[C@@H](n2ncc(C(=O)N(CC(=O)c3c(Cl)cccc3Cl)CC3CC(C)(C)C3)c2C(F)(F)F)CC[C@H]1C(=O)O [Example 684, (1R,2S,4S)-4-(4-((2-(2,6-dichlorophenyl)-2-oxoethyl)((3,3-dimethylcyclobutyl)methyl)carbamoyl)-5-(trifluoromethyl)-1H-pyrazol-1-yl)-2-methylcyclohexanecarboxylic acid]
186 | C[C@]1(C(=O)O)CC[C@H](n2ncc(C(=O)N(CC(=O)c3c(Cl)cncc3Cl)C[C@H]3CCCO3)c2C(F)(F)F)CC1 [Example 808, trans-4-(4-((2-(3,5-dichloro-4-pyridinyl)-2-oxoethyl)((2R)-tetrahydro-2-furanylmethyl)carbamoyl)-5-(trifluoromethyl)-1H-pyrazol-1-yl)-1-methylcyclohexanecarboxylic acid]
8.32 | O=C(CN(Cc1ccc(C(F)(F)F)cc1)C(=O)c1cnn([C@H]2CC[C@H](C(=O)O)CC2)c1C(F)(F)F)c1c(Cl)cccc1Cl [Example 527, trans-4-(4-((2-(2,6-dichlorophenyl)-2-oxoethyl)(4-(trifluoromethyl)benzyl)carbamoyl)-5-(trifluoromethyl)-1H-pyrazol-1-yl)cyclohexanecarboxylic acid]
9.33 | CC(C)[C@@H]1C[C@H](Cc2c(Cl)cncc2Cl)N(C(=O)c2cnn([C@H]3CC[C@](C)(C(=O)O)CC3)c2C(F)(F)F)C1 (single isomer, unassigned) [Example 701]
7.41 | Cc1cc(Cl)c(C(=O)CN(CC2CCC(C)(C)CC2)C(=O)c2cnn([C@H]3CC[C@](C)(C(=O)O)CC3)c2C(F)(F)F)c(Cl)c1 [Example 532, trans-4-(4-((2-(2,6-dichloro-4-methylphenyl)-2-oxoethyl)((4,4-dimethylcyclohexyl)methyl)carbamoyl)-5-(trifluoromethyl)-1H-pyrazol-1-yl)-1-methylcyclohexanecarboxylic acid]
6.03 | CC1(C)[C@@H]2C[C@H](N(CC(=O)c3c(Cl)cccc3Cl)C(=O)c3cnn([C@H]4C[C@@H](CC(=O)O)C4)c3C(F)(F)F)C[C@@H]21 [Example 859, (cis-3-(4-((2-(2,6-dichlorophenyl)-2-oxoethyl)((1R,3r,5S)-6,6-dimethylbicyclo[3.1.0]hex-3-yl)carbamoyl)-5-(trifluoromethyl)-1H-pyrazol-1-yl)cyclobutyl)acetic acid]
7.94 | CC1(C)CCC(N(CCc2c(Cl)cccc2Cl)C(=O)c2cnn([C@H]3CC[C@H](C(=O)O)CC3)c2C(F)(F)F)CC1 [Example 534, trans-4-(4-((2-(2,6-dichlorophenyl)ethyl)(4,4-dimethylcyclohexyl)carbamoyl)-5-(trifluoromethyl)-1H-pyrazol-1-yl)cyclohexanecarboxylic acid]
871 | CC1(C)CC[C@H]1N(CC(=O)c1c(Cl)cncc1Cl)C(=O)c1cnn([C@H]2CC[C@@H](C(=O)O)CC2)c1C(F)(F)F [Example 634, cis-4-(4-((2-(3,5-dichloro-4-pyridinyl)-2-oxoethyl)((1R)-2,2-dimethylcyclobutyl)carbamoyl)-5-(trifluoromethyl)-1H-pyrazol-1-yl)cyclohexanecarboxylic acid]
